In patent publication US20070082880A1 (priority 2005, published 2007) one finds IC50 data, which are given here for 31 compounds.

For this assay, the target named is T1, human PKCθ full length enzyme (Homo sapiens, UniProt Q04759).
T1 construct: human PKCθ full length enzyme (Panvera Catalog No. P2996); purchased Panvera P2996
T1 sequence (Q04759 whole entry): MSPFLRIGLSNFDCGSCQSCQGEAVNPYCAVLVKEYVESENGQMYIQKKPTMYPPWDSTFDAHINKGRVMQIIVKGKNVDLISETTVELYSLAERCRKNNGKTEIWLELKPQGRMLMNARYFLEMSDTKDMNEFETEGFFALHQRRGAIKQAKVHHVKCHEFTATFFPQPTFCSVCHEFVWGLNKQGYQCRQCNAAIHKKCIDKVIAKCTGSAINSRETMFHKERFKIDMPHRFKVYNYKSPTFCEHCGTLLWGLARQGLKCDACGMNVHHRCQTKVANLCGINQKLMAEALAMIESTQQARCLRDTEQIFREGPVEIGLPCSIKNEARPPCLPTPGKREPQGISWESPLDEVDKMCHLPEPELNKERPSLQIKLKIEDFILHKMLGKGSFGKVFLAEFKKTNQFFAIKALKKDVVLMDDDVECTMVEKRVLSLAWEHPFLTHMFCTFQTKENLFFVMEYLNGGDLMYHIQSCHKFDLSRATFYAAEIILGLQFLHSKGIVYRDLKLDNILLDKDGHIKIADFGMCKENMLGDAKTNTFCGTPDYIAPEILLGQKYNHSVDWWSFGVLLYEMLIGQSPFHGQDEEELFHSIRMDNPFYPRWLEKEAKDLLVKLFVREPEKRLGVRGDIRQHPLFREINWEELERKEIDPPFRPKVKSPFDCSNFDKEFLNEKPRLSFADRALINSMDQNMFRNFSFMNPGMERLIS
The assay is described as follows: PKCθ IMAP Assay. Format: biochemical. The settings on record: average value when one or more samples were tested; ATP 6 uM, PKCθ 1 nM. As for the experimental part:
The materials used include the following: human PKCθ full length enzyme (Panvera Catalog No. P2996); substrate peptide: 5FAM-[…]-OH (Molecular Devices, RP7032); ATP (Sigma Cat # A2383); DTT (Pierce, 20291); 5× kinase reaction buffer (Molecular Devices, R7209); 5× binding buffer A (Molecular Devices, R7282), 5× binding buffer B (Molecular Devices, R7209); IMAP Beads (Molecular Devices, R7284); and 384-well plates (Corning Costar, 3710).
The reaction buffer was prepared by diluting the 5× stock reaction buffer and adding DTT to obtain a concentration of 3.0 mM. The binding buffer was prepared by diluting the 5× binding buffer A. A master mix solution was prepared using a 90% dilution of the reaction buffer containing 2×ATP (12 uM) and 2× peptide ([…]). […] The final concentration of compound was 2× and 10% DMSO. DMSO was added to the rest of the master mix to increase the concentration to 10%. 10 ul of the master mix containing 10% DMSO was added to the rest of the wells on the plate except the 2nd column. 20 ul was transferred from the first column to the 2nd column. The compounds were serially diluted in 2:1 ratio starting from the 2nd column. A 2× (2 nM) PKCθ solution was made in the reaction buffer. 10 ul of the PKCθ solution was added to every well to achieve these final concentrations: PKCθ—1 nM; ATP—6 uM; peptide—100 nM; DMSO—5%. Samples were incubated for 25 minutes at room temperature. The binding reagent was prepared by diluting the beads in 1× binding buffer to 800:1. 50 ul of the binding reagent was added to every well and incubated for 20 minutes. FP was measured using Envision2100 (PerkinElmer Life Sciences). Wells with no ATPs and wells with no enzymes were used as controls.
Broadly, the IC50 is the concentration needed to halve the response being measured. A low value points to greater potency. Compound `N#Cc1cnc2sc(-c3cccc(CN4CCN(CCOCCO)CC4)c3)cc2c1Nc1ccc2[nH]ccc2c1` [Compound 181, 2-[3-({4-[2-(2-hydroxyethoxy)ethyl]piperazin-1-yl}methyl)phenyl]-4-(1H-indol-5-ylamino)thieno[2,3-b]pyridine-5-carbonitrile] registered an IC50 of 0.18 µM. Next, `N#Cc1cnc2sc(-c3cccc(CN4CCCCC4CO)c3)cc2c1Nc1ccc2[nH]ccc2c1` (stereo not shown) [Compound 182]: 0.13 µM; `N#Cc1cnc2sc(-c3cccc(CNCCOCCO)c3)cc2c1Nc1ccc2[nH]ccc2c1` [Compound 183, 2-[3-({[2-(2-hydroxyethoxy)ethyl]amino}methyl)phenyl]-4-(1H-indol-5-ylamino)thieno[2,3-b]pyridine-5-carbonitrile]: 0.079 µM. In turn, `N#Cc1cnc2sc(-c3cccc(CO)c3)cc2c1Nc1cccc2[nH]ccc12` [Compound 193, 2-[3-(hydroxymethyl)phenyl]-4-(1H-indol-4-ylamino)thieno[2,3-b]pyridine-5-carbonitrile] showed an IC50 of 0.053 µM.

Consider `CN(C)C(=O)c1cccc(-c2cc3c(Nc4cccc5[nH]ccc45)c(C#N)cnc3s2)c1` [Compound 194, 3-[5-cyano-4-(1H-indol-4-ylamino)thieno[2,3-b]pyridine-2-yl]-N,N-dimethylbenzamide], for which the IC50 turned out to be 0.12 µM. Consider `CN(C)C(=O)c1cccc(-c2cc3c(Nc4ccc5[nH]ccc5c4)c(C#N)cnc3s2)c1` [Compound 195, 3-[5-cyano-4-(1H-indol-5-ylamino)thieno[2,3-b]pyridine-2-yl]-N,N-dimethylbenzamide], for which the IC50 is 0.42 µM. `N#Cc1cnc2sc(-c3cccc(CN)c3)cc2c1Nc1ccc2[nH]ccc2c1` [Compound 196, 2-[3-(aminomethyl)phenyl]-4-(1H-indol-5-ylamino)thieno[2,3-b]pyridine-5-carbonitrile] displayed an IC50 of 0.038 µM. Next, `CN(C)c1cccc(-c2cc3c(Nc4ccc5[nH]ccc5c4)c(C#N)cnc3s2)c1` [Compound 197, 2-[3-(dimethylamino)phenyl]-4-(1H-indol-5-ylamino)thieno[2,3-b]pyridine-5-carbonitrile]: 0.48 µM; `CNS(=O)(=O)c1ccc(-c2cc3c(Nc4ccc5[nH]ccc5c4)c(C#N)cnc3s2)cc1` [Compound 198, 4-[5-cyano-4-(1H-indol-5-ylamino)thieno[2,3-b]pyridin-2-yl]-N-methylbenzenesulfonamide]: 0.059 µM. On to `Cc1c(Nc2c(C#N)cnc3sc(-c4cccc(C=O)c4)cc23)ccc2[nH]ccc12` [Compound 201, 2-(3-formylphenyl)-4-[(4-methyl-1H-indol-5-yl)amino]thieno[2,3-b]pyridine-5-carbonitrile], for which half-maximal inhibition (IC50) required 0.016 µM. Next, `COc1ccc(C=O)cc1-c1cc2c(Nc3ccc4[nH]ccc4c3)c(C#N)cnc2s1` [Compound 202, 2-(5-formyl-2-methoxyphenyl)-4-(1H-indol-5-ylamino)thieno[2,3-b]pyridine-5-carbonitrile]: 0.1 µM; `CN(C)Cc1cc(-c2cc3c(Nc4ccc5[nH]ccc5c4)c(C#N)cnc3s2)cs1` [Compound 212, 2-{5-[(dimethylamino)methyl]-3-thienyl}-4-(1H-indol-5-ylamino)thieno[2,3-b]pyridine-5-carbonitrile]: 0.037 µM. `CN(C)Cc1cccc(C#Cc2cc3c(Nc4cccc5[nH]ccc45)c(C#N)cnc3s2)n1` [Compound 219, 2-({6-[(dimethylamino)methyl]pyridin-2-yl}ethynyl)-4-(1H-indol-4-ylamino)thieno[2,3-b]pyridine-5-carbonitrile]: the IC50 was 0.084 µM. Consider `Cc1c(Nc2c(C#N)cnc3sc(C#Cc4cccc(CN(C)C)n4)cc23)ccc2[nH]ccc12` [Compound 220, 2-({6-[(dimethylamino)methyl]pyridin-2-yl}ethynyl)-4-(4-methyl-1H-indol-5-ylamino)thieno[2,3-b]pyridine-5-carbonitrile], for which the IC50 amounted to 0.014 µM. This IC50 lies about 6-fold lower than the previous one.

For the compound `N#Cc1cnc2sc(C#Cc3cnc(N)nc3)cc2c1Nc1ccc2[nH]ccc2c1` [Compound 228, 2-[(2-aminopyrimidin-5-yl)ethynyl]-4-(1H-indol-5-ylamino)thieno[2,3-b]pyridine-5-carbonitrile], the IC50 was above 1.5 µM. The compound `CN(C)Cc1ccc(C#Cc2cc3c(Nc4ccc5[nH]ccc5c4)c(C#N)cnc3s2)nc1` [Compound 229, 2-({5-[(dimethylamino)methyl]pyridin-2-yl}ethynyl)-4-(1H-indol-5-ylamino) thieno[2,3-b]pyridine-5-carbonitrile] gave an IC50 of 0.79 µM. This counts as sub-micromolar.

Compound `CNS(=O)(=O)c1ccc(-c2cc3c(Nc4ccc5[nH]ccc5c4C)c(C#N)cnc3s2)cc1` [Compound 230, 4-{5-cyano-4-[(4-methyl-1H-indol-5-yl)amino]thieno[2,3-b]pyridin-2-yl}-N-methylbenzenesulfonamide] gave an IC50 of 0.009 µM. Compound `CN(C)S(=O)(=O)c1ccc(-c2cc3c(Nc4ccc5[nH]ccc5c4)c(C#N)cnc3s2)cc1` [Compound 231, 4-[5-cyano-4-(1H-indol-5-ylamino)thieno[2,3-b]pyridin-2-yl]-N,N-dimethylbenzenesulfonamide] yielded an IC50 of 0.21 µM. `N#Cc1cnc2sc(-c3ccc(S(=O)(=O)NCCO)cc3)cc2c1Nc1ccc2[nH]ccc2c1` [Compound 232, 4-[5-cyano-4-(1H-indol-5-ylamino)thieno[2,3-b]pyridin-2-yl]-N-(2-hydroxyethyl)benzenesulfonamide]: the IC50 is 0.34 µM. On to `N#Cc1cnc2sc(-c3ccc(S(=O)(=O)NC4CCCCC4)cc3)cc2c1Nc1ccc2[nH]ccc2c1` [Compound 233, 4-[5-cyano-4-(1H-indol-5-ylamino)thieno[2,3-b]pyridin-2-yl]-N-cyclohexylbenzenesulfonamide], for which the IC50 came to 40 µM. The compound `CS(=O)(=O)c1ccc(-c2cc3c(Nc4ccc5[nH]ccc5c4)c(C#N)cnc3s2)cc1` [Compound 234, 4-(1H-indol-5-ylamino)-2-[4-(methylsulfonyl)phenyl]thieno[2,3-b]pyridine-5-carbonitrile] had an IC50 of 0.13 µM. This IC50 is about 310-fold lower than that of the compound before. Regarding `CS(=O)(=O)Nc1ccc(-c2cc3c(Nc4ccc5[nH]ccc5c4)c(C#N)cnc3s2)cc1` [Compound 235, N-{4-[5-cyano-4-(1H-indol-5-ylamino)thieno[2,3-b]pyridin-2-yl]phenyl}methanesulfonamide], half-maximal inhibition (IC50) was put at 1.2 µM. This IC50 lies about 9.2-fold higher than the previous one. Next, `Cc1c(Nc2c(C#N)cnc3sc(-c4ccc(S(=O)(=O)N(C)C)cc4)cc23)ccc2[nH]ccc12` [Compound 236, 4-{5-cyano-4-[(4-methyl-1H-indol-5-yl)amino]thieno[2,3-b]pyridin-2-yl}-N,N-dimethylbenzenesulfonamide]: 0.02 µM. Next, `Cc1c(Nc2c(C#N)cnc3sc(-c4cccc(S(=O)(=O)N(C)C)c4)cc23)ccc2[nH]ccc12` [Compound 237, 3-{5-cyano-4-[(4-methyl-1H-indol-5-yl)amino]thieno[2,3-b]pyridin-2-yl}-N,N-dimethylbenzenesulfonamide]: 0.05 µM; `Cc1c(Nc2c(C#N)cnc3sc(-c4ccccc4S(=O)(=O)N(C)C)cc23)ccc2[nH]ccc12` [Compound 238, 2-{5-cyano-4-[(4-methyl-1H-indol-5-yl)amino]thieno[2,3-b]pyridin-2-yl}-N,N-dimethylbenzenesulfonamide]: 0.44 µM.

In the case of `CS(=O)(=O)c1cccc(-c2cc3c(Nc4ccc5[nH]ccc5c4)c(C#N)cnc3s2)c1` [Compound 239, 4-(1H-indol-5-ylamino)-2-[3-(methylsulfonyl)phenyl]thieno[2,3-b]pyridine-5-carbonitrile], inhibition was half-maximal at 1.1 µM (IC50). `Cc1c(Nc2c(C#N)cnc3sc(-c4cccc(S(N)(=O)=O)c4)cc23)ccc2[nH]ccc12` [Compound 240, 3-{5-cyano-4-[(4-methyl-1H-indol-5-yl)amino]thieno[2,3-b]pyridin-2-yl}benzenesulfonamide] returned an IC50 of 0.006 µM. The result for `Cc1c(Nc2c(C#N)cnc3sc(-c4ccc(S(N)(=O)=O)cc4)cc23)ccc2[nH]ccc12` [Compound 241, 4-{5-cyano-4-[(4-methyl-1H-indol-5-yl)amino]thieno[2,3-b]pyridin-2-yl}benzenesulfonamide] reads 0.013 µM; that for `N#Cc1cnc2sc(-c3ccc(S(N)(=O)=O)cc3)cc2c1Nc1ccc2[nH]ccc2c1` [Compound 242, 4-[5-cyano-4-(1H-indol-5-ylamino)thieno[2,3-b]pyridin-2-yl]benzenesulfonamide], 0.38 µM; that for `COC(=O)c1cc2c(Nc3ccc4[nH]ccc4c3)c(C#N)cnc2s1` [Compound 246, methyl 5-cyano-4-(1H-indol-5-ylamino)thieno[2,3-b]pyridine-2-carboxylate], 0.438 µM. On to `N#Cc1cnc2sc(C(=O)N3CCCC3)cc2c1Nc1ccc2[nH]ccc2c1` [Compound 250, 4-(1H-indol-5-ylamino)-2-(pyrrolidin-1-ylcarbonyl)thieno[2,3-b]pyridine-5-carbonitrile], for which the IC50 stood at 1.04 µM.
